Test results from patent US20250108038A1 (priority 2023, published 2025).
Like-named read-outs stand apart in the source and are kept apart here.

Key:
Wistar rats = format: in vivo, Wistar rat
Experimental: Animals were trained in eight automated 5C-SRTT operant chambers (Med Associates, St. Albans, VT, USA), controlled by MedPC software (Med Associates). Briefly, each operant chamber was equipped with 5 apertures containing a photocell beam to detect nose pokes and a lamp (2.8 W) that could be illuminated randomly at varying durations. Food pellets (45 mg chow pellet, BioServ, Frenchtown, NJ, USA) were delivered automatically to a magazine, located on the opposite wall to the nose pokes, that was also equipped with a light that turned on to indicate that a pellet had been dispensed. The house-light remained on for the entire session unless an error or omission occurred. Training sessions began with the delivery of a food reward and retrieval triggered the first trial. […] Training began with the stimulus duration set at 10 sec, a limited hold period of 5 sec and an ITI of 5 sec. […] Sessions ended when 40 minutes had lapsed or 100 trials had been completed.
Upon meeting the performance criteria, animals were assessed in the vSD version of the task where the following stimulus durations were presented in a pseudorandom manner: 0.3, 0.6 and 0.9 sec. Later, subjects were assessed in the vITI version where 2.5, 5.0 and 10.0 sec ITIs were employed in a pseudorandom manner. Performance parameters measured were: % hit ((# correct/(# correct+# incorrect including omissions))×100); % correct ((# correct/(# correct+# incorrect excluding omissions))×100); premature responses (# of nose-pokes into any aperture after trial initiation but before onset of the stimulus light); timeout responses (# of nose pokes into any aperture during a timeout period), perseverative responses (# of nose pokes occurring after the correct response had been made but before reward collection); # of food magazine head entries, omissions and total trials completed. The latency to correct response (time taken from the onset of the nose poke light stimulus to making the correct nose poke response), latency to incorrect response (time taken from onset of nose poke light stimulus to making the incorrect nose poke response), and latency to reward (i.e., the magazine latency, time taken from making a correct nose poke response to retrieving the reward from the magazine) was also recorded.
Drug doses and vehicle were administered in a pseudorandom fashion. Drug or vehicle sessions were performed 1-2 times per week with maintenance training (behavioral testing without drug or vehicle injections) interspersed.
All data were collated and entered into Microsoft Excel spreadsheets. The data were subsequently imported into StatView 5.0 for statistical analyses. One and two factor analysis of variance (ANOVA) tests were used with repeated measures when indicated, followed by Fisher LSD or Student Newman Keuls as post-hoc tests. All results were expressed as the mean (±S.E.M.). Differences between means from experimental groups were considered significant at the p<0.05 level. The statistical F values and degrees of freedom associated with the two factor ANOVA analyses are provided in the text of this report. Please refer to the statistical reports in the appendices for the values associated with one factor ANOVAs for the overall means and overall total values.

[1] = test system: orexin/tTA; Tet-O diphtheria toxin A mice (DTA mice); format: in vivo, mouse; details: 6 h after dosing at ZT12; for cataplexy (C) time: Compound I-19 0.3, 1, 3 mg/kg i.p., Compound I-4 0.3, 1, 3 mg/kg p.o., Des 5 mg/kg p.o.
human red blood cells = test: Hemolysis study in human blood; format: cell-based; details: 60 min, 37° C.
Experimental: (§1) FIG. 4A. […] Compound I-19 in human blood. Red blood cells were isolated from whole blood and resuspended in PBS. […] (final concentrations 25, 50, and 100 μM) and the mixtures were incubated at 37° C. for 60 min. After the incubation, the samples were centrifuged and the absorbance of 100 μL of supernatant was read at 410 nm. % RBC lysis is expressed relative to 100% lysis control. Values represent mean+SEM of n=3 separate experiments.
FIG. 4B. Hemolytic Potential of Compound I-4 in human blood. Red blood cells were isolated from whole blood and resuspended in PBS. 190 μL of diluted RBC suspension and 10 μL of Compound I-4 solutions were mixed at 0 min. (final concentrations 25, 50, and 100 μM) and the mixtures were incubated at 37° C. for 60 min. After the incubation, the samples were centrifuged and the absorbance of 100 μL of supernatant was read at 410 nm. % RBC lysis is expressed relative to 100% lysis control. Values represent mean+SEM of n=3 separate experiments.
(§2) FIG. 4C. Hemolytic Potential of Amphotericin B in human blood (positive assay control). Red blood cells were isolated from whole blood and resuspended in PBS. 190 μL of diluted RBC suspension and 10 μl of amphotericin B solutions were mixed at 0 min. (final concentrations 1, 10, 30, and 100 μM) and the mixtures were incubated at 37° C. for 60 min. After the incubation, the samples were centrifuged and the absorbance of 100 μL of supernatant was read at 410 nm. % RBC lysis is expressed relative to 100% lysis control. Values represent mean+SEM of n=3 separate experiments.
(§3) To a clear 96-well V-bottom polystyrene plate, the test articles (10 μL) and the diluted RBCs (190 μL) from human or rat blood were mixed for final concentrations of 25, 50, and 100 μM. The reaction mixture was incubated at 37° C. for 60 min. Following the exposure period, the plates were centrifuged. After centrifugation, 70 μL of supernatant (without disturbing the pellet) was transferred to a clean and clear polystyrene flat bottomed 96-well plate and the absorbance of the sample at a single wavelength was measured using a BioTech Synergy H1 Plate Reader at a wavelength of 410 nm. The positive control for this assay was amphotericin B test at concentrations of 1, 10, 30, and 100 μM.

rat red blood cells = test: Hemolysis study in rat blood; format: cell-based; details: 60 min, 37° C.
Experimental: as §1, with “6A.” for “4A.”, “rat” for “human”
as §1, with “6B.” for “4A.”, “rat” for “human”, “μl” for “μL”
as §2, with “6C.” for “4C.”, “rat” for “human”, “μL” for “μl”
as §3

OAT3 = target: T1, OAT3 (Homo sapiens, UniProt Q8TCC7); test: Uptake transporter inhibition assay, OAT3 (estrone-3-sulfate); details: for inhibition at 500 μM: human
T1 sequence (Q8TCC7 1-542): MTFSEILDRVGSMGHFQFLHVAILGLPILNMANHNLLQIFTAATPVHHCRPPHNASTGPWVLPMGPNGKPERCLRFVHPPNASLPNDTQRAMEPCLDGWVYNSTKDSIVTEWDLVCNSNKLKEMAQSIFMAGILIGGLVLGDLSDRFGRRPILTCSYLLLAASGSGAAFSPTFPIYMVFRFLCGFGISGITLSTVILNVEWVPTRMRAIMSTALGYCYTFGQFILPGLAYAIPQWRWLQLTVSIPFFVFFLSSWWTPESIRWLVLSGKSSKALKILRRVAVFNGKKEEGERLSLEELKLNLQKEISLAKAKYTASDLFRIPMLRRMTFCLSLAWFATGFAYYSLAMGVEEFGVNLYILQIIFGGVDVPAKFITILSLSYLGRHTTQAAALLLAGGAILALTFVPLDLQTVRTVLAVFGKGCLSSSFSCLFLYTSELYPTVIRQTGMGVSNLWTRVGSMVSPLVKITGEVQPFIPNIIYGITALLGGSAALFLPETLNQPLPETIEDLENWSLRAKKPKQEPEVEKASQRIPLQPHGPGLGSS
Experimental: Uptake experiments were performed using HEK293 cells stably expressing the respective uptake transporters. The assays were conducted according to the actual SOLVO uptake transporter assay protocols (PR-ASY-UPT-General Protocol for Uptake Transporter Inhibition Assays).
Cells were cultured at 37° C. in a humidified atmosphere containing 5% CO2 and were plated onto standard 96-well tissue culture plates.
Before the experiment, the medium was removed, and the cells were washed twice with 100 μL of pre-warmed (37° C.) assay buffer listed in Table 15. The cells were pre-incubated at 37° C. for 30 minutes in assay buffer containing the test article at appropriate concentrations (Table 16), appropriate solvents for solvent controls and the reference inhibitor for reference inhibitor wells. After the pre-incubation step solutions were removed. Uptake experiments were performed at 37° C. in 50 μL of assay buffer containing the probe substrate and the test article or solvent and controls.
After the experiment, cells were washed twice with 100 μL of appropriate cold buffer and lysed with 150 μL scintillation cocktail. Radiolabeled probe substrate transport was determined by liquid scintillation counting.
Uptake of the probe substrate in control cells provided background activity values for all data points.

[2] = test articles 25, 50, 100 μM, amphotericin B 1, 10, 30, 100 μM

Question: `CN1CCCC1c1cccnc1` (stereo not shown) [nicotine, Nicotine, reference compound] was tested. Which “% hit rate” value (Wistar rats; nicotine 0.05-0.2 mg/kg sc, Compound I-4 0.1-3.0 mg/kg ip, Compound I-19 0.03-1.0 mg/kg ip) did it give?
Answer: Its value is “increase in the % hit rate”.

Question: And the “% correct” value (Wistar rats; same doses)?
Answer: The value was “no statistically significant effects”.

Question: What about the Magazine Head Entries (Wistar rats; same doses) of the same compound?
Answer: The Magazine Head Entries was “increase in the number of premature responses, timeout responses, magazine head entries”.

Question: And the Omissions (Wistar rats; same doses)?
Answer: The Omissions was “decrease in omissions”.

Question: And the “number of trials completed” value (Wistar rats; same doses)?
Answer: The value was “no effect on the total number of trials completed”.

Question: And the perseverative responses (Wistar rats; same doses)?
Answer: Its perseverative responses is “no statistically significant effects on perseverative responses or reward latencies”.

Question: What about the premature responses (Wistar rats; same doses) of the same compound?
Answer: Its premature responses is “the higher 2 doses of nicotine were associated with an increase”.

Question: And the “response latencies (correct, incorrect)” value (Wistar rats; same doses)?
Answer: The value was “modest decrease in the response latencies associated with correct responses”.

Question: And the reward latencies (Wistar rats; same doses)?
Answer: Its reward latencies is “no statistically significant effects on perseverative responses or reward latencies”.

Question: And the timeout responses (Wistar rats; same doses)?
Answer: The timeout responses was “increase in the number of premature responses, timeout responses, magazine head entries”.

Question: With `CNCCCN1c2ccccc2CCc2ccccc21` [Desipramine, reference compound] as the compound, how does the “latency to REM (effect)” value [1] read?
Answer: The value was “increased the latency to REM onset”.

Question: And the “cataplexy (C) time” value [1]?
Answer: Its value is “decreased significantly for the first 2 h post administration but was not significant overall”.

Question: And the “cataplexy (C) time” value ([1]; listed as Des)?
Answer: The value was “decreased for the first 2 h post administration but was not significant overall”.

Question: What about the REM time ([1]; same doses) of the same compound?
Answer: Its REM time is “overall reduction in REM sleep did not reach significance”.

Question: With `C[C@@H]1[C@H](O)[C@@H](C)/C=C/C=C/C=C/C=C/C=C/C=C/C=C/[C@H](O[C@@H]2O[C@H](C)[C@@H](O)[C@H](N)[C@@H]2O)C[C@@H]2O[C@](O)(C[C@@H](O)C[C@@H](O)[C@H](O)CC[C@@H](O)C[C@@H](O)CC(=O)O[C@H]1C)C[C@H](O)[C@H]2C(=O)O` [amphotericin B, reference compound] as the compound, how does the EC50 (human red blood cells; read-out: EC50 (% RBC lysis)) read?
Answer: Its EC50 is 7.06 µM.

Question: What about the “% RBC lysis (hemolytic potential)” value (human red blood cells; [2]) of the same compound?
Answer: Its value is “dose-dependent increase in % RBC lysis”.

Question: And the EC50 (rat red blood cells; read-out: EC50 (% RBC lysis))?
Answer: The EC50 was 4.73 µM.

Question: And the “% RBC lysis (hemolytic potential)” value (rat red blood cells; [2])?
Answer: Its value is “dose-dependent increase in % RBC lysis”.

Question: How did the Transporter specific accumulation (OAT3; 500.00 μM nominal, E3S, Table 130) turn out when `CCCN(CCC)S(=O)(=O)c1ccc(C(=O)O)cc1` [Probenecid] was run?
Answer: The Transporter specific accumulation was 291.67 ± 17.04 cpm.

Question: And the “Relative transporter specific accumulation” value (OAT3; 500.00 μM, reference inhibitor)?
Answer: Its value is 1.68 ± 0.31 % of control.

Question: What about the inhibition at 500 μM (OAT3; Relative Inhibition, 500.00 μM nominal, E3S, Table 130) of the same compound?
Answer: The inhibition at 500 μM was 98%.

Question: What about the inhibition at 500 μM (OAT3; Relative inhibition, 500.00 μM, reference inhibitor) of the same compound?
Answer: The inhibition at 500 μM was 97%.
